Experimental data: PMC7699524, “Assessing the Intestinal Permeability and Anti-Inflammatory Potential of Sesquiterpene Lactones from Chicory” (Nutrients, 2020)
Marks after values point to notes of the source that are not given here.

Legend:
[1] = system: calcineurin-Crz1 pathway; assay: β-Galactosidase CDRE-lacZ yeast reporter assay of Crz1 activation; type: cell-based, S. cerevisiae; conditions: Saccharomyces cerevisiae, MnCl2 3 mM activation, strain YAA5; for inhibition at 12.5 µM: read-out: Calcineurin-Crz1 Inhibition (%) ± SD, 12.5 µM
Description: Cultures at OD600= 0.5 ± 0.05 were diluted to OD600= 0.1 ± 0.01, transferred to 96-well microplate and challenged with the highest nontoxic concentration previously determined for each compound to investigate their putative inhibitory effect towards the calcineurin-responsive zinc finger (Crz1) activation. Measurements of β-galactosidase activity driven by the calcineurin-dependent response element (CDRE) regulated lacZ reporter gene allowed the quantitative assessment of the capacity of each compound to inhibit the activation of Crz1. FK506 (Cayman Chemicals, Ann Arbor, MI, USA) was used as a positive control at a final concentration of 12.5 μM. After 90 min of incubation with the respective compounds at 30 °C under orbital shaking, MnCl2 (Merck, Saint Louis, MO, USA) was added at a final concentration of 3 mM. After 90 min of incubation under the same conditions, OD600 of cultures were recorded, 10 μL of cell suspensions were transferred to a new 96-well plate followed by addition of 20 μL Y-PER cell lysis reagent (ThermoFisher Scientific), and the plates were incubated for 20 min at 37 °C without agitation. 240 μL of LacZ buffer (8.5 g/L Na2HPO4 (ROTH), 5.5 g/L NaH2PO4.H2O (Merck), 0.75 g/L KCl (Panreac), 0.246 g/L MgSO4.7H2O (Merck) containing […] o-nitrophenyl β-D-galactopyranoside (ONPG) (Sigma–Aldrich®—Poole, Dorset, UK) was added to each well, and plates were incubated at 30 °C for 2 h. The OD420 and OD550 were monitored using a Biotek Power Wave XS Microplate Spectrophotometer (Biotek® Instruments, Winooski, VT, USA). The results were expressed as Miller units (MU), applying the following equation, where V = volume of culture assayed in mL; t = reaction time in minutes: Miller unit = 1000 × (OD420 − 1.75 × OD550)/(t × V × OD600)(1)

[2] = system: Caco-2 cells; assay: Permeability across Caco-2 monolayer (apical concentration by LC-MS); conditions: for % of Decrease in SL Concentration in the Apical Side (t = 4h) / SL conjugates with cysteine in the apical side after 4 h / Concentration of SL (Apical Side) t = 4 h / Concentration of SL (Apical Side) t = 0 h: Caco-2 monolayer; for % of Decrease in SL Concentration in the Apical Side (t = 4h): 10 µM apical, 4 h vs t = 0 h; for Concentration of SL (Apical Side) t = 4 h / Concentration of SL (Apical Side) t = 0 h: SL added at 10 µM apical; for Concentration of SL (Apical Side) t = 4 h: after 4 h; for Concentration of SL (Apical Side) t = 0 h: before experiment
Description: For intestinal permeability assessments of pure SLs, Caco-2 cells were seeded in 12 mm Transwell® inserts (polyester membrane, 0.4 μm pore size, Corning Costar Corp., NY, USA) at a density of 1.0 × 10^5 cell/cm^2. Cells were allowed to grow and differentiate to a confluent monolayer for 21 days postseeding with medium change three times per week. This mimics the apical and basolateral sides of the intestinal mucosa. Before the permeability assay, cells were washed with Hank’s balanced salt solution (HBSS) (Gibco, Life Technologies, Paisley, UK), and pure SLs in HBSS were added to the apical side for 4 h at the noncytotoxic concentration of 10 μM, while the basolateral well was replaced by HBSS. The fluorescent marker fluorescein (2.7 µM) was used as control, having been submitted to the same protocol as the SLs. Cells were submitted to an orbital shaking of 125 rpm (Ohaus, Shanghai, China), and samples from the basolateral side were collected after 15 min, 30 min, and then every hour until the end of the assay, and each time the retrieved volume was replaced by fresh HBSS to maintain sink conditions. After the 4 h assay, both apical and basolateral contents were collected, the cells were washed with PBS followed by culture medium, and culture medium was added to both compartments for 24 h to assess monolayer recovery. All samples were stored at −80 °C until LC-MS analysis.
Transepithelial electrical resistance (TEER) of all monolayers was monitored before and during experiments, and 24 h after the assay, to ensure their integrity using an EVOM™ voltmeter (WPI, Berlin, Germany). Before each experiment, TEER was measured and only monolayers with a TEER value higher than 500 Ω cm^2 were used. Experiments were done in triplicate.
Ultra High Performance Liquid Chromatography (UHPLC) separations were performed with a Dionex U3000 UHPLC coupled with a U3000 Photo Diode Array (PDA) and an LTQ-Orbitrap XL Mass Spectrometry (MS) system (Thermo-Fisher Ltd., Hemel Hempstead, UK). The MS and PDA systems were tuned and calibrated according to the manufacturers recommended procedures. The UHPLC was operated under Xcalibur and Chromeleon software (Thermo-Fisher Ltd. UK). A flow rate of 300 µL/min was applied, the column and guard (Synergi C18 Hydro-RP 80 Ä, 150 × 2.0 mm, 4 µm particle size; Phenomenex Ltd. U.K.) were maintained at a temperature of 30 °C. The solvent system compositions were, A: HPLC grade water (J.T. Baker, Scientific Chemical Supplies Ltd. UK), and solvent B: HPLC grade acetonitrile (J.T. Baker, Scientific Chemical Supplies Ltd. UK), both acidified with 0.1% MS grade formic acid (Ultima, Fisher Scientific, UK). A sample injection volume of 10 µL was employed in partial-loop mode. The gradient program was as follows: hold 2% B 0–2 min, 2–5% B 2–5 min, 5–45% B 5–25 min, 45–100% B 25–35 min, hold 100% B 35–38 min, 100–2% B 38–39 min, hold 2% B 39–44 min. Autosampler syringe and line washes were performed with 2:8 HPLC grade water: acetonitrile (J.T. Baker, Scientific Chemical Supplies Ltd., UK). The HPLC column eluent was first monitored by the U3000 PDA detector where spectra were collected in wavelength/absorbance mode from 200–600 nm. Additionally, three channel set points were employed, Channel A 210 nm, Channel B 260 nm, Channel C 320 nm. Spectra were collected with a filter bandwidth of 8 nm and wavelength step of 1 nm, the scan rate was 5 Hz.
The UHPLC eluent was next transferred to a Thermo LTQ-Orbitrap XL mass spectrometry system operated under Xcalibur (Thermo-Fisher Ltd. UK). For the first two minutes of analysis the UHPLC eluent was diverted to waste, from two to 39 min the eluent was directed to the MS detector, before being diverted back to waste between 39–44 min. Mass spectra were collected in centroid mode with a primary full scan event (m/z 100–1000) at a mass resolution of 30,000 (FWHM defined at m/z 400) within the Fourier Transform (FT) detector.

[3] = system: yeast cells; assay: Yeast cell viability (Cell Titer Blue); type: cell-based, S. cerevisiae; conditions: Cell Titer Blue assay
Description: Doses of SLs ranging from 12.5 μM to 100 μM for each compound were used in the yeast viability assays. Cultures obtained were diluted to a final OD600 = 0.025 ± 0.0025. The viability assays were performed in 96-wells microplates using 100 µL of diluted culture suspensions and 10 µL of Cell Titer Blue reagent (Promega, WI, USA) according to manufacturer’s instructions for 3 h at 30 °C. Fluorescence was measured in 30 min intervals at emission wavelength 580 nm using the Biotek Power Wave XS Microplate Spectrophotometer (Biotek® Instruments, Winooski, VT, USA).

[4] = Caco-2 apical side, conjugates estimated against calibration curves of parent SLs
[5] = LC-MS, apical side, t = 4 h, parent SLs added at 10 μM

Structure (SMILES)	inhibition at 12.5 µM [1]	% of Decrease in SL Concentration in the Apical Side (t = 4h) [2]	SL conjugates with cysteine in the apical side after 4 h ([2]; LC-MS)	Concentration of SL (Apical Side) t = 4 h [2]	Concentration of SL (Apical Side) t = 0 h [2]	Apical Concentration t = 4 h (µM Equivalents to Parent SL) [2, 4]	Peak Area (Average a.u.) [2, 5]	Apical Concentration t = 4 h (µM Equivalents to Parent SL) ([2]; Caco-2)	further results
CC1=C2C(=O)C=C(CO)C2C2OC(=O)C(C)C2C(OC(=O)Cc2ccc(O)cc2)C1 (stereo not drawn) [11β,13-dihydrolactucopicrin]	26 ± 11%	29.9 * %	not detected	4.9 ± 0.9 µM	7.0 ± 1.2 µM				
C/C1=C\[C@H]2OC(=O)C(CSC[C@H](N)C(=O)O)[C@@H]2CC/C(C)=C/CC1 (stereo partly drawn) [Costunolide-Cys]						95 ± 8.4 µM Equivalents to Parent SL	3.1 × 10^8 a.u.		
C=C1C(=O)O[C@@H]2/C=C(\C)CC/C=C(\C)CC[C@@H]12 [Costunolide]		100 ** %	detected	<LOD	13.1 ± 1.8 µM	<LOD			inhibition at 6.25 µM ([1]; read-out: Calcineurin-Crz1 Inhibition (%) ± SD, 6.25 µM): 18 ± 9%; Concentration of SL (Apical Side) t = 4 h ([2]; listed as costunolide): LOQ; Highest nontoxic concentration in yeast [3]: 6.25 µM
C=CC[C@@H]1/C=C(\C)C[C@H](C)C[C@H](OC)[C@H]2O[C@@](O)(C(=O)C(=O)N3CCCC[C@H]3C(=O)O[C@H](/C(C)=C/[C@@H]3CC[C@@H](O)[C@H](OC)C3)[C@H](C)[C@@H](O)CC1=O)[C@H](C)C[C@@H]2OC [FK506, reference compound]	67 ± 13%								
C=C1C(=O)O[C@@H]2[C@H]3C(CO)=CC(=O)C3=C(C)C[C@H](O)[C@@H]12 [Lactucin, lactucin]	20 ± 14%	28.8 *** %	detected	5.9 ± 0.5 µM	8.3 ± 0.7 µM	5.9 ± 0.5 µM Equivalents to Parent SL	6.8 × 10^7 a.u.		% of Decrease in SL Concentration in the Apical Side (t = 4h) ([2]; listed as lactucin): ≈ 30%
CC1=C2C(=O)C=C(CO)C2C2OC(=O)C(CSCC(N)C(=O)O)C2C(O)C1 (stereo not drawn) [Lactucin-Cys]								2.9 ± 3.6 µM Equivalents to Parent SL	
C=C1C(=O)O[C@@H]2[C@H]3C(CO)=CC(=O)C3=C(C)C[C@H](OC(=O)Cc3ccc(O)cc3)[C@@H]12 [Lactucopicrin, lactucopicrin]	18 ± 9%	100 ** %	detected	<LOQ	12.4 ± 1.3 µM	<LOQ	1.2 × 10^6 a.u.		Concentration of SL (Apical Side) t = 4 h ([2]; listed as lactucopicrin): LOQ
CC1=C2C(=O)C=C(CO)C2C2OC(=O)C(CSCC(N)C(=O)O)C2C(OC(=O)Cc2ccc(O)cc2)C1 (stereo not drawn) [Lactucopicrin-Cys]								17.8 ± 2.9 µM Equivalents to Parent SL	
C=C1C(=O)O[C@H]2[C@H]1CC/C(C)=C/CC[C@@]1(C)O[C@@H]21 [Parthenolide, parthenolide, reference compound]	20 ± 12%	100 ** %	detected	<LOQ	11.9 ± 2.0 µM	<LOQ			Peak Area (Average a.u.) ([2]; human, Caco-2, 4 h, 10 µM): 9.2 × 10^5 a.u.
CC1=CCCC2(C)OC2C2OC(=O)C(CSCC(N)C(=O)O)C2CC1 (stereo not drawn) [Parthenolide-Cys]								27 ± 5.9 µM Equivalents to Parent SL	
